Data published in publication PMC7412250, “Novel Chrysin-De-Allyl PAC-1 Hybrid Analogues as Anticancer Compounds: Design, Synthesis, and Biological Evaluation” (Molecules, 2020).

Assays:
HCT116 = assay: MTT cytotoxicity assay, HCT116; type: cell-based; settings: Homo sapiens, HCT-116, mean ± SEM of three independent experiments in triplicate, read-out: IC50 Colon Cancer HCT116
Method: (§1) A panel of cancer cell lines, including breast (MDA-MB-231, BT20), brain (U251), and colon (HCT116), as well as a normal cell line (human mammary epithelial cells: HMECs), were grown as adherent monolayers in flasks with Dulbecco’s Modified Eagle Medium (DMEM), supplemented with 10% fetal bovine serum (FBS) and 1% penicillin and streptomycin in a humidified incubator with 5% CO2 at 37 °C.
The (3-(4,5-dimethylthiazol-2-yl)-2,5-diphenyltetrazolium bromide) (MTT) assay was used to determine the cytotoxicity of the 15 chrysin derivatives in the above-mentioned cell lines. Briefly, cells were harvested with 0.05% trypsin, 2.21 mM ethylenediaminetetraacetic acid (EDTA), 1× from Corning (Corning, NY, USA), and suspended at a final density of 5 × 10^3 cells/well. Cells were seeded (180 μL/well) into 96-well plates. Initially, four different concentrations of each compound were added to find the compounds with the greatest antiproliferative efficacy in the MDA-MB-231 cell line (0, 1, 10, and 100 μM). Subsequently, […] different concentrations […] of each compound were added to the remaining cell lines mentioned above. After 68 h of incubation, 20 μL of the MTT solution (4 mg/mL) were added to each well, and the plates were incubated for 4 h. This allowed viable cells to biotransform the yellow-colored MTT into dark-blue formazan crystals. Subsequently, the medium was discarded, and 150 μL of DMSO were added to each well to dissolve the formazan crystals. The absorbance was determined at 590 nm using a DTX 880 multimode detector (Beckman Coulter life sciences, IN, USA). The IC50 ± SD concentrations were calculated from three experiments performed in triplicate/duplicate. The IC50 values were calculated from the cell survival percentages obtained for each compound tested at different concentrations. Similarly, the cytotoxicity of the test compounds was compared to the normal cell line (HMEC).

MDA-MB-231 cells [1] = assay: MitoTracker Red / Alexa Fluor 488 annexin V flow cytometry (mitochondrial membrane potential and apoptosis); type: cell-based, human; settings: for Q2 % of cells (population of cells undergoing apoptosis, quadrant II): 24 h, MitoTracker Red / annexin V, 0 µM control 14.30% (4g), 14.78% (4i); for mitochondrial membrane potential (in words): incubation for 24 h
Method: MitoTracker Red and Alexa Fluor 488 annexin V kits for flow cytometry (Molecular Probes Inc., Invitrogen, Eugene, OR) were used to measure the mitochondrial membrane potential and apoptosis in MDA-MB-231 cells. […] The cells were then […] using 0.05% trypsin, 2.21 mM EDTA, 1×, counted, and 4 μL of 10 μM of the MitoTracker Red working solution were added to 1 mL of the harvested cells. The cells were incubated at 37 °C with 5% CO2 for 30 min. The cells were washed once with PBS and resuspended in 100 μL of the annexin binding buffer. The cell suspensions were incubated with 5 μL of Alexa Fluor 488 annexin V for 15 min. This was followed by the addition of 400 μL of the annexin-binding buffer. Finally, flow cytometry was used to detect the fluorescence of stained cells at the following excitation/emission maxima: Alexa Fluor® 488 annexin V: 499/521 nm; MitoTracker® Red: 579/599 nm with the BD Accuri™ C6 flow cytometer from BD Biosciences (Becton-Dickinson, San Jose, CA, USA) and analyzed using FCS express 5 plus De Novo software (Glendale, CA, USA).

MDA-MB-231 cells [2] = assay: Cell cycle analysis by PI flow cytometry; type: cell-based, human; settings: 24 h, vehicle 4.46%
Method: MDA-MB-231 cells were plated into 6-well plates at 2.5 × 10^5 cells/well. […] Next, the cells were trypsinized with 0.05% trypsin, 2.21 mM EDTA, 1×, washed, counted, and resuspended in 1 mL of ice-cold PBS. The cells then were stained with propidium iodide (PI) dye and incubated for at least 15 min. The distribution of the cells in each cell cycle phase for the different concentrations was measured using a BD Accuri™ C6 flow cytometer from BD Biosciences (Becton-Dickinson, San Jose, CA, USA) and analyzed using FCS Express 5 plus De Novo software (Glendale, CA, USA).

BT-20, U-251, and HCT116 = assay: MTT cytotoxicity assay, three cancer cell lines stated together; type: cell-based; settings: range across the three cancer cell lines, read-out: IC50 values, range over BT-20, U-251 and HCT116
Method: as §1
The (3-(4,5-dimethylthiazol-2-yl)-2,5-diphenyltetrazolium bromide) (MTT) assay was used to determine the cytotoxicity of the 15 chrysin derivatives in the above-mentioned cell lines. Briefly, cells were harvested with 0.05% trypsin, 2.21 mM ethylenediaminetetraacetic acid (EDTA), 1× from Corning (Corning, NY, USA), and suspended at a final density of 5 × 10^3 cells/well. Cells were seeded (180 μL/well) into 96-well plates. Initially, four different concentrations of each compound were added to find the compounds with the greatest antiproliferative efficacy in the MDA-MB-231 cell line (0, 1, 10, and 100 μM). […] The absorbance was determined at 590 nm using a DTX 880 multimode detector (Beckman Coulter life sciences, IN, USA). The IC50 ± SD concentrations were calculated from three experiments performed in triplicate/duplicate. The IC50 values were calculated from the cell survival percentages obtained for each compound tested at different concentrations. […]

Row | SMILES | IC50 (HCT116) [µM] | Q2 % of cells (population of cells undergoing apoptosis, quadrant II) (MDA-MB-231 cells [1]; 5 µM) [%] | Q2 % of cells (population of cells undergoing apoptosis, quadrant II) (MDA-MB-231 cells [1]; 10 µM) [%] | mitochondrial membrane potential (in words) (MDA-MB-231 cells [1]) | % of cells in G2 phase (MDA-MB-231 cells [2]; 5 µM) [%] | % of cells in G2 phase (MDA-MB-231 cells [2]; 10 µM) [%] | IC50 (BT-20, U-251, and HCT116) [µM]
1 | O=C(COc1cc(O)c2c(=O)cc(-c3ccccc3)oc2c1)N/N=C/c1ccc(O)cc1O [Compound 4g, (E,Z)-N’-(2,4-Dihydroxybenzylidene)-2-((5-hydroxy-4-oxo-2-phenyl-4H-chromen-7-yl)oxy)acetohydrazide] | 2.68 ± 0.15 | 26.56 | 58.05 | significant loss of the mitochondrial membrane potential | 59.12 | 54.13 | –
2 | O=C(COc1cc(O)c2c(=O)cc(-c3ccccc3)oc2c1)N/N=C/c1ccc(O)c(O)c1O [Compound 4i, (E,Z)-2-((5-Hydroxy-4-oxo-2-phenyl-4H-chromen-7-yl)oxy)-N’-(2,3,4-trihydroxybenzylidene)acetohydrazide] | 20.09 ± 0.13 | 32.25 | 42.56 | significant loss of the mitochondrial membrane potential | – | – | 10 to 25
